Like-named read-outs stand apart in the source and are kept apart here.
Tests used:
[1] = Stability of solvent with storage; assay type: physicochemical
[2] = Stability of vitamin D in vehicle; assay type: physicochemical; conditions: result in words; only cells marked # are direct experimental observation
Description: The liquid has minimal sensory effects i.e. it has minimal smell, taste, or texture i.e. no oily feel. The liquid is biologically natural in the context of breast-feeding, and is safe for infant consumption. The liquid per se is not subject to rancidity or oxidation over the shelf-life of the composition. […] One drop of each liquid was applied onto a nipple to determine whether it would adhere well enough so that no portion of it would drip off in a timeframe of 10 seconds. The results of these experimental observations are presented in Table 1 along with further considerations regarding the parameters desired for this invention.

Molecule | Stability of solvent with storage [1] | Stability of solvent with storage ([1]; direct experimental observation) | Stability of vitamin D in vehicle [2]
CC(=O)Oc1c(C)c(C)c2c(c1C)CCC(C)(CCC[C@H](C)CCC[C@H](C)CCCC(C)C)O2 (stereo partly shown) [Eitamin E acetate oil] | Stable |  | 
CCO [Ethanol] |  | Evaporates | Solvent
O [Water] | Stable |  | 
Canola oil | Oxidizes/ |  | 
Medium-chain triglyceride | Stable |  | 
Sesame oil | Oxidizes/ |  | 

Source: patent US9066958B2 (priority 2006, dated 2015)
